Data from PubChem BioAssay AID330 (DTP/NCI, 2004).
“And” between values parts separate entries of the source, which are not always exact repeats. Identical values can stand only once. Inconclusive results and toxic doses are left out. The calls were made as follows: active = survival T/C of 150% or more; inactive = T/C below 125% in these data.

Tested on: P388 leukemia ip, CD2F1 mice, survival T/C
Assay: NCI In Vivo Anticancer Drug Screen. Data for tumor model P388 Leukemia (intraperitoneal) in CD2F1 (CDF1) mice
Details: endpoint: median survival time, higher = longer survival
In short: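 Mice carrying the transplanted tumor received test compound or vehicle. Survival was recorded in each group, and the value is the treated-group measurement divided by that of the vehicle-treated control group.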

[1] = dose: 60.0 mg/kg/injection, schedule: Q01DX005 (ip), vehicle: saline with Tween-80
[2] = dose: 100.0 mg/kg/injection, schedule: Q01DX009 (ip), vehicle: saline with Tween-80
[3] = dose: 50.0 mg/kg/injection, schedule: Q01DX009 (ip), vehicle: Klucel (hydroxypropylcellulose) (HPC)
[4] = dose: 50.0 mg/kg/injection, schedule: Q01DX009 (ip), vehicle: saline
[5] = dose: 100.0 mg/kg/injection, schedule: Q01DX009 (ip), vehicle: saline
[6] = dose: 200.0 mg/kg/injection, schedule: Q01DX009 (ip), vehicle: saline
[7] = dose: 12.5 mg/kg/injection, schedule: Q01DX005 (ip), vehicle: saline with Tween-80
[8] = dose: 25.0 mg/kg/injection, schedule: Q01DX005 (ip), vehicle: saline with Tween-80
[9] = dose: 50.0 mg/kg/injection, schedule: Q01DX005 (ip), vehicle: saline with Tween-80
[10] = dose: 200.0 mg/kg/injection, schedule: Q01DX005 (ip), vehicle: saline with Tween-80
[11] = dose: 50.0 mg/kg/injection, schedule: Q01DX005 (ip), vehicle: Klucel (hydroxypropylcellulose) (HPC)
[12] = dose: 100.0 mg/kg/injection, schedule: Q01DX005 (ip), vehicle: Klucel (hydroxypropylcellulose) (HPC)
[13] = dose: 200.0 mg/kg/injection, schedule: Q01DX005 (ip), vehicle: Klucel (hydroxypropylcellulose) (HPC)
[14] = dose: 100.0 mg/kg/injection, schedule: Q01DX009 (ip), vehicle: Klucel (hydroxypropylcellulose) (HPC)
[15] = dose: 200.0 mg/kg/injection, schedule: Q01DX009 (ip), vehicle: Klucel (hydroxypropylcellulose) (HPC)
[16] = dose: 25.0 mg/kg/injection, schedule: Q01DX009 (ip), vehicle: saline with Tween-80
[17] = dose: 50.0 mg/kg/injection, schedule: Q01DX009 (ip), vehicle: saline with Tween-80

Measured: T/C

CC12CCC3(O)C(CCC4C(O)C(=O)CCC43C)C1CCC2=O (stereo not drawn)
inactive: dose: 11.25 mg/kg/injection, schedule: Q01DX005 (ip), vehicle: Klucel (hydroxypropylcellulose) (HPC) 105 % of control | dose: 22.5 mg/kg/injection, schedule: Q01DX005 (ip), vehicle: Klucel (hydroxypropylcellulose) (HPC) 100 % of control | dose: 45.0 mg/kg/injection, schedule: Q01DX005 (ip), vehicle: Klucel (hydroxypropylcellulose) (HPC) 105 % of control | dose: 90.0 mg/kg/injection, schedule: Q01DX005 (ip), vehicle: Klucel (hydroxypropylcellulose) (HPC) 114 % of control | dose: 180.0 mg/kg/injection, schedule: Q01DX005 (ip), vehicle: Klucel (hydroxypropylcellulose) (HPC) 98 % of control

C=C(CO)CC(CC(=C)CCS(=O)(=O)c1ccccc1)S(=O)(=O)c1ccccc1 (stereo not drawn)
inactive: [1] 94 % of control | dose: 120.0 mg/kg/injection, schedule: Q01DX005 (ip), vehicle: saline with Tween-80 106 % of control | dose: 240.0 mg/kg/injection, schedule: Q01DX005 (ip), vehicle: saline with Tween-80 100 % of control

OCC1OC(Oc2ncccn2)C(O)C1O (stereo not drawn)
inactive: dose: 50.0 mg/kg/injection, schedule: Q01DX005 (ip), vehicle: saline 97 % of control | dose: 50.0 mg/kg/injection, schedule: Q01DX005 (ip), vehicle: suspension in saline 99 % of control | dose: 100.0 mg/kg/injection, schedule: Q01DX005 (ip), vehicle: saline 99 % of control | dose: 100.0 mg/kg/injection, schedule: Q01DX005 (ip), vehicle: suspension in saline 99 % of control | dose: 200.0 mg/kg/injection, schedule: Q01DX005 (ip), vehicle: saline 101 % of control | dose: 200.0 mg/kg/injection, schedule: Q01DX005 (ip), vehicle: suspension in saline 98 % of control | dose: 400.0 mg/kg/injection, schedule: Q01DX005 (ip), vehicle: saline 104 % of control | dose: 400.0 mg/kg/injection, schedule: Q01DX005 (ip), vehicle: suspension in saline 99 % of control

COc1cc(O)c(/C=N/NC(=S)NC23CC4CC(CC(C4)C2)C3)c(OC)c1
inactive: dose: 7.5 mg/kg/injection, schedule: Q01DX005 (ip), vehicle: saline with Tween-80 105 % of control | dose: 15.0 mg/kg/injection, schedule: Q01DX005 (ip), vehicle: saline with Tween-80 101 % of control and 103 % of control | [1] 93 % of control

Cc1ncn2cnnc2c1C
inactive: dose: 100.0 mg/kg/injection, schedule: Q04DX003 (ip), vehicle: saline with Tween-80 89 % of control | dose: 200.0 mg/kg/injection, schedule: Q04DX003 (ip), vehicle: saline with Tween-80 95 % of control

OC(CN1CCCC2CCCCC21)c1cc2ccccc2c2ccccc12 (stereo not drawn)
inactive: [2] 108 % of control | dose: 200.0 mg/kg/injection, schedule: Q01DX009 (ip), vehicle: saline with Tween-80 104 % of control

Fc1ccc(CSC(=S)Nc2ccc(F)c(F)c2)cc1
inactive: [3] 111 % of control | [4] 87 % of control | [5] 107 % of control | [6] 108 % of control

C[C@]12CC[C@H](O)C[C@@H]1CC[C@@H]1[C@@H]2CC[C@]2(C)c3nc4ccccc4c(C(=O)O)c3C[C@@H]12
inactive: [7] 101 % of control | [8] 100 % of control | [9] 86 % of control and 94 % of control | [10] 93 % of control

O=C=Nc1cccc2c1C(=O)c1ccccc1-2
inactive: [11] 91 % of control | [12] 88 % of control | [13] 86 % of control

COC(=O)CCSC(=S)Nc1ccc(Br)cc1
inactive: [11] 100 % of control | [12] 100 % of control | [13] 102 % of control

C=CCc1ccc(C(=O)OCCCCCCCCCC)c(OC)c1
inactive: [3] 103 % of control | [14] 105 % of control | [15] 105 % of control

CCC1(c2ccccc2)NN1C1CCCCC1 (stereo not drawn)
inactive: dose: 6.25 mg/kg/injection, schedule: Q01DX005 (ip), vehicle: saline with Tween-80 100 % of control | [7] 96 % of control | [8] 92 % of control | [9] 96 % of control | dose: 100.0 mg/kg/injection, schedule: Q01DX005 (ip), vehicle: saline with Tween-80 100 % of control | [10] 105 % of control

Cc1cc(Br)c(N)c(C(O)(C(F)(F)F)C(F)(F)F)c1
inactive: [3] 91 % of control | [14] 97 % of control | [15] 108 % of control

COc1ccc2oc(=O)n(N=C(C)C)c(=O)c2c1
inactive: dose: 60.0 mg/kg/injection, schedule: Q01DX005 (ip), vehicle: Klucel (hydroxypropylcellulose) (HPC) 97 % of control | dose: 120.0 mg/kg/injection, schedule: Q01DX005 (ip), vehicle: Klucel (hydroxypropylcellulose) (HPC) 95 % of control | dose: 240.0 mg/kg/injection, schedule: Q01DX005 (ip), vehicle: Klucel (hydroxypropylcellulose) (HPC) 94 % of control

COc1ccc(C(=O)C(Br)C(Br)C(=O)O)cc1 (stereo not drawn)
inactive: dose: 12.5 mg/kg/injection, schedule: Q01DX009 (ip), vehicle: saline with Tween-80 114 % of control | [16] 114 % of control | [17] 107 % of control and 121 % of control

CCCCOS(=O)(=O)c1ccc([N+](C)(C)C)cc1
inactive: dose: 12.5 mg/kg/injection, schedule: Q01DX009 (ip), vehicle: Klucel (hydroxypropylcellulose) (HPC) 100 % of control | dose: 25.0 mg/kg/injection, schedule: Q01DX009 (ip), vehicle: Klucel (hydroxypropylcellulose) (HPC) 102 % of control | [3] 104 % of control

C[Si]1(C)CC[Si](C)(C)OS(=O)(=O)O1
inactive: dose: 27.5 mg/kg/injection, schedule: Q01DX005 (ip), vehicle: Klucel (hydroxypropylcellulose) (HPC) 102 % of control | dose: 55.0 mg/kg/injection, schedule: Q01DX005 (ip), vehicle: Klucel (hydroxypropylcellulose) (HPC) 100 % of control

CCOP(=O)(OCC)C1CCCN2CCc3cc(OC)c(OC)cc3C12 (stereo not drawn)
inactive: [4] 91 % of control | [5] 98 % of control | [6] 95 % of control

CN=C(c1ccc(NC(=O)c2ccc(C(=O)Nc3ccc(C(=NC)N4CCCC4)cc3)cc2)cc1)N1CCCC1
inactive: dose: 0.39 mg/kg/injection, schedule: Q01DX005 (ip), vehicle: Klucel (hydroxypropylcellulose) (HPC) 99 % of control | dose: 0.78 mg/kg/injection, schedule: Q01DX005 (ip), vehicle: Klucel (hydroxypropylcellulose) (HPC) 93 % of control | dose: 1.56 mg/kg/injection, schedule: Q01DX005 (ip), vehicle: Klucel (hydroxypropylcellulose) (HPC) 94 % of control | dose: 3.12 mg/kg/injection, schedule: Q01DX005 (ip), vehicle: Klucel (hydroxypropylcellulose) (HPC) 97 % of control

CC(C)c1cc(C(C)C)c(S(=O)(=O)N/N=C2\C=CCC(C)(C)C2)c(C(C)C)c1
inactive: dose: 50.0 mg/kg/injection, schedule: Q01DX009 (ip), vehicle: DMSO 87 % of control | dose: 100.0 mg/kg/injection, schedule: Q01DX009 (ip), vehicle: DMSO 89 % of control | dose: 200.0 mg/kg/injection, schedule: Q01DX009 (ip), vehicle: DMSO 97 % of control

CC(=O)OC1=C(Br)CCc2ccccc21
inactive: dose: 3.12 mg/kg/injection, schedule: Q01DX009 (ip), vehicle: DMSO 103 % of control | dose: 6.25 mg/kg/injection, schedule: Q01DX009 (ip), vehicle: DMSO 108 % of control | dose: 12.5 mg/kg/injection, schedule: Q01DX009 (ip), vehicle: DMSO 90 % of control and 96 % of control | dose: 25.0 mg/kg/injection, schedule: Q01DX009 (ip), vehicle: DMSO 93 % of control

CSC1(CC(=O)N(C)C)C(=O)N(C)c2ccccc21 (stereo not drawn)
inactive: [16] 100 % of control | [17] 94 % of control | [2] 115 % of control

Cn1c(C(=O)NN)cc2cc(OCc3ccccc3)ccc21
inactive: [11] 97 % of control | [12] 100 % of control | [13] 98 % of control

CNc1c(C(N)=O)nnn1Cc1ccc(OC)cc1
inactive: dose: 100.0 mg/kg/injection, schedule: Q04DX002 (ip), vehicle: Klucel (hydroxypropylcellulose) (HPC) 100 % of control | dose: 200.0 mg/kg/injection, schedule: Q04DX002 (ip), vehicle: Klucel (hydroxypropylcellulose) (HPC) 100 % of control | dose: 400.0 mg/kg/injection, schedule: Q04DX002 (ip), vehicle: Klucel (hydroxypropylcellulose) (HPC) 103 % of control
